According to PubChem BioAssay (NCI):
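Five compound concentrations were applied to cells in 96-well plates for 48 hours; endpoints were derived by simple linear interpolation of the resulting dose-response curve. Here, GI50 denotes the concentration required for 50% inhibition of growth. The concentration for full growth arrest is given as TGI.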

What was measured:
Assay in all cases: inhibition of tumour cell growth, NCI panel, 48 h
SW-620 colon = system: SW-620 colon
SK-OV-3 ovarian = system: SK-OV-3 ovarian
OVCAR-3 ovarian = system: OVCAR-3 ovarian
BT-549 breast = system: BT-549 breast
CAKI-1 renal = system: CAKI-1 renal
HOP-92 NSCLC = system: HOP-92 NSCLC
EKVX NSCLC = system: EKVX NSCLC
UACC-257 melanoma = system: UACC-257 melanoma
HCC-2998 colon = system: HCC-2998 colon
NCI-H460 lung = system: NCI-H460 lung
NCI-H522 lung = system: NCI-H522 lung
MDA-MB-435 = system: MDA-MB-435
COLO 205 colon = system: COLO 205 colon
IGROV1 ovarian = system: IGROV1 ovarian
OVCAR-8 ovarian = system: OVCAR-8 ovarian
ACHN renal = system: ACHN renal
SK-MEL-5 melanoma = system: SK-MEL-5 melanoma
CCRF-CEM leukemia = system: CCRF-CEM leukemia
HS 578T breast = system: HS 578T breast
MOLT-4 leukemia = system: MOLT-4 leukemia
SF-295 CNS = system: SF-295 CNS
NCI-H23 lung = system: NCI-H23 lung
TK-10 renal = system: TK-10 renal
UO-31 renal = system: UO-31 renal
SK-MEL-28 melanoma = system: SK-MEL-28 melanoma
OVCAR-5 ovarian = system: OVCAR-5 ovarian
DU-145 prostate = system: DU-145 prostate
HL-60(TB) leukemia = system: HL-60(TB) leukemia
HT29 colon = system: HT29 colon
U251 CNS = system: U251 CNS
SF-268 CNS = system: SF-268 CNS
786-0 renal = system: 786-0 renal
RXF 393 renal = system: RXF 393 renal
OVCAR-4 ovarian = system: OVCAR-4 ovarian
MALME-3M melanoma = system: MALME-3M melanoma
M14 melanoma = system: M14 melanoma
SF-539 CNS = system: SF-539 CNS
SR leukemia = system: SR leukemia
HCT-15 colon = system: HCT-15 colon
SNB-75 CNS = system: SNB-75 CNS
SN12C renal = system: SN12C renal
NCI/ADR-RES ovarian = system: NCI/ADR-RES ovarian
RPMI-8226 leukemia = system: RPMI-8226 leukemia
UACC-62 melanoma = system: UACC-62 melanoma
PC-3 prostate = system: PC-3 prostate
MCF7 breast = system: MCF7 breast
T-47D breast = system: T-47D breast
SK-MEL-2 melanoma = system: SK-MEL-2 melanoma
NCI-H226 lung = system: NCI-H226 lung
MDA-MB-231 breast = system: MDA-MB-231 breast
HOP-62 NSCLC = system: HOP-62 NSCLC
HCT-116 colon = system: HCT-116 colon
SNB-19 CNS = system: SNB-19 CNS
A549 NSCLC = system: A549 NSCLC
A498 renal = system: A498 renal
KM12 colon = system: KM12 colon

O=S(=O)(NCCNc1cc(-c2cn(-c3ccccc3)nc2-c2cccc(O)c2)ccn1)c1ccc(F)cc1
GI50 (SW-620 colon): 3.52 µM
TGI (SW-620 colon): 13.6 µM
GI50 (SK-OV-3 ovarian): 2.85 µM
TGI (SK-OV-3 ovarian): 12.3 µM
GI50 (OVCAR-3 ovarian): 1.98 µM
TGI (OVCAR-3 ovarian): 4.59 µM
GI50 (BT-549 breast): 2.03 µM
TGI (BT-549 breast): 7.68 µM
GI50 (CAKI-1 renal): 3.89 µM
TGI (CAKI-1 renal): > 100 µM
GI50 (HOP-92 NSCLC): 2.03 µM
TGI (HOP-92 NSCLC): 8.48 µM
GI50 (EKVX NSCLC): 2.59 µM
TGI (EKVX NSCLC): 20.3 µM
GI50 (UACC-257 melanoma): 2.85 µM
TGI (UACC-257 melanoma): 7.14 µM
GI50 (HCC-2998 colon): 1.98 µM
TGI (HCC-2998 colon): 4.19 µM
GI50 (NCI-H460 lung): 3.12 µM
TGI (NCI-H460 lung): 9.12 µM
GI50 (NCI-H522 lung): 1.49 µM
TGI (NCI-H522 lung): 3.79 µM
GI50 (MDA-MB-435): 2.3 µM
TGI (MDA-MB-435): 7.2 µM
GI50 (COLO 205 colon): 1.91 µM
TGI (COLO 205 colon): 4.34 µM
GI50 (IGROV1 ovarian): 3.21 µM
TGI (IGROV1 ovarian): 19.8 µM
GI50 (OVCAR-8 ovarian): 3.07 µM
TGI (OVCAR-8 ovarian): 14.1 µM
GI50 (ACHN renal): 2.32 µM
TGI (ACHN renal): 7.34 µM
GI50 (SK-MEL-5 melanoma): 1.73 µM
TGI (SK-MEL-5 melanoma): 3.22 µM
GI50 (CCRF-CEM leukemia): 3.28 µM
TGI (CCRF-CEM leukemia): 17.3 µM
GI50 (HS 578T breast): 2.94 µM
TGI (HS 578T breast): > 100 µM
GI50 (MOLT-4 leukemia): 2.23 µM
TGI (MOLT-4 leukemia): 5.46 µM
GI50 (SF-295 CNS): 1.75 µM
TGI (SF-295 CNS): 3.9 µM
GI50 (NCI-H23 lung): 2.66 µM
TGI (NCI-H23 lung): 10.8 µM
GI50 (TK-10 renal): 3.58 µM
TGI (TK-10 renal): 9.84 µM
GI50 (UO-31 renal): 2.31 µM
TGI (UO-31 renal): 7.88 µM
GI50 (SK-MEL-28 melanoma): 2.03 µM
TGI (SK-MEL-28 melanoma): 5.39 µM
GI50 (OVCAR-5 ovarian): 1.93 µM
TGI (OVCAR-5 ovarian): 5.69 µM
GI50 (DU-145 prostate): 3.35 µM
TGI (DU-145 prostate): 16.8 µM
GI50 (HL-60(TB) leukemia): 2.43 µM
TGI (HL-60(TB) leukemia): 6.22 µM
GI50 (HT29 colon): 1.99 µM
TGI (HT29 colon): 4.79 µM
GI50 (U251 CNS): 2.62 µM
TGI (U251 CNS): 7.85 µM
GI50 (SF-268 CNS): 2.42 µM
TGI (SF-268 CNS): 8.93 µM
GI50 (786-0 renal): 2.49 µM
TGI (786-0 renal): 14.3 µM
GI50 (RXF 393 renal): 2.09 µM
TGI (RXF 393 renal): 7.54 µM
GI50 (OVCAR-4 ovarian): 3.05 µM
TGI (OVCAR-4 ovarian): > 100 µM
GI50 (MALME-3M melanoma): 1.73 µM
TGI (MALME-3M melanoma): 3.88 µM
GI50 (M14 melanoma): 2.27 µM
TGI (M14 melanoma): 6.41 µM
GI50 (SF-539 CNS): 1.71 µM
TGI (SF-539 CNS): 3.95 µM
GI50 (SR leukemia): 1.6 µM
TGI (SR leukemia): 4.88 µM
GI50 (HCT-15 colon): 1.8 µM
TGI (HCT-15 colon): 5.75 µM
GI50 (SNB-75 CNS): 2.83 µM
TGI (SNB-75 CNS): 16.5 µM
GI50 (SN12C renal): 3.69 µM
TGI (SN12C renal): 35.1 µM
GI50 (NCI/ADR-RES ovarian): 2.69 µM
GI50 (RPMI-8226 leukemia): 2.23 µM
TGI (RPMI-8226 leukemia): 6.12 µM
GI50 (UACC-62 melanoma): 1.99 µM
TGI (UACC-62 melanoma): 4.73 µM
GI50 (PC-3 prostate): 2.29 µM
TGI (PC-3 prostate): 10.3 µM
GI50 (MCF7 breast): 2.19 µM
TGI (MCF7 breast): 6.66 µM
GI50 (T-47D breast): 2.01 µM
TGI (T-47D breast): 6.86 µM
GI50 (SK-MEL-2 melanoma): 1.92 µM
TGI (SK-MEL-2 melanoma): 4.32 µM
GI50 (NCI-H226 lung): 3.06 µM
TGI (NCI-H226 lung): 13.7 µM
GI50 (MDA-MB-231 breast): 1.88 µM
TGI (MDA-MB-231 breast): 4.7 µM
GI50 (HOP-62 NSCLC): 1.98 µM
TGI (HOP-62 NSCLC): 5.44 µM
GI50 (HCT-116 colon): 2.86 µM
TGI (HCT-116 colon): 10.4 µM
GI50 (SNB-19 CNS): 3.72 µM
TGI (SNB-19 CNS): 31.7 µM
GI50 (A549 NSCLC): 3.43 µM
TGI (A549 NSCLC): 12.1 µM
GI50 (A498 renal): 2.69 µM
TGI (A498 renal): 9.26 µM
GI50 (KM12 colon): 2.34 µM
TGI (KM12 colon): 8.26 µM
